Laboratory results from patent publication US8940739B2, “Compound of a reverse-turn mimetic and a production method and use therefor” (JW Pharmaceutical Corporation, priority 2010, dated 2015).

Legend:
[1] = biological target: cDNA-expressed human hepatic CYP3A4 (Homo sapiens (Human), UniProt P08684); assay: Measurement of CYP (IC50 of P450 CYP3A4), BFC substrate; assay type: in vitro ADME; details: 20 minutes
Method: The compounds of the present invention had lower P450 CYP3A4 inhibitory activity (higher IC50). Lower CYP3A4 inhibitory activity means that the compounds of the present invention cause fewer side-effects from the pharmacological point of view.
This assay was performed in a 200 l volume in 96-well microtiter plates using cDNA-expressed human hepatic CYP3A4 (supersome, BD Gentest™ #456202). As a substrate for CYP3A4, 7-benzyloxy-4-trifluoromethyl-coumarin (BFC) was used. The compounds of Examples 1 to 5 and the substrate BFC were dissolved in 100% acetonitrile. The final volume of acetonitrile of the incubation mixture was less than 1% (volume/volume). A potassium phosphate buffer (pH 7.4, final concentration 0.1M), MgCl2 (final concentration 8.3 mM), EDTA (final concentration 1.67 mM), an inventive compound stock solution, CYP3A4 supersome, and NADPH (final concentration 0.25 mM) were added to each well. The reaction was initiated by adding the substrate (BFC, final concentration 30 µM) at 37. The incubation was performed for 20 minutes and then the reaction was terminated by the addition of 75 μl of acetonitrile: 0.5 M tris-base=4:1 (volume/volume).
Then, a fluorescent signal was measured using a fluorometer. A BFC metabolite, 7-hydroxy-4-trifluoromethyl-coumarin, was measured using an excitation wavelength of 409 nm and an emission wavelength of 530 nm.

[2] = test system: MV-4-11 (human, Acute Myeloid Leukemia cell line) cells; assay: Cell growth inhibition assay, GI50 of MV-4-11; assay type: cell-based; details: Homo sapiens, MV4-11, 72 h, MV-4-11 cells
In short: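 MV-4-11 AML cells (5×10^4/well, IMDM with 10% FBS) treated in duplicate with serially diluted compounds for 72 hours at 37 °C. Viability read as absorbance at 490 nm after CellTiter 96 Aqueous One (MTS) addition; GI50 calculated from the concentration-response.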

Chain of cDNA-expressed human hepatic CYP3A4 (P08684 whole entry): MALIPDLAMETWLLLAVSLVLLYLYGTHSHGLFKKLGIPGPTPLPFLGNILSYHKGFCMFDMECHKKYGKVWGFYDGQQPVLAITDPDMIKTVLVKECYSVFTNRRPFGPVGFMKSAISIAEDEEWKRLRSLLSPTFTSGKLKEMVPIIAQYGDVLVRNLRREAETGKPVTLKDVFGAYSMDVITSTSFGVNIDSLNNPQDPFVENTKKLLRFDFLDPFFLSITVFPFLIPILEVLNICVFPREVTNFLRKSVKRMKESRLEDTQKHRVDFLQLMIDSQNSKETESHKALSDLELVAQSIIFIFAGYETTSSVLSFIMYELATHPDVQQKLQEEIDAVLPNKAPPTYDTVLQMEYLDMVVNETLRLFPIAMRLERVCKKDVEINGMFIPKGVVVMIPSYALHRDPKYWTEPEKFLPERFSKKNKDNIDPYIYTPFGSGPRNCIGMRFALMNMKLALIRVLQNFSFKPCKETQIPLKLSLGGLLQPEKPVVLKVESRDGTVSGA

Row | SMILES | IC50 [1] [nM] | GI50 [2] [nM]
1 | C=CCN1CC(=O)N2[C@@H](Cc3ccc(O)cc3)C(=O)N(Cc3cccc4c(-c5ccc(C(=O)Nc6ccc(N7CCOCC7)nc6)cc5)cn(C)c34)C[C@@H]2N1C(=O)NCc1ccccc1 [Compound D-12] | > 25000 | 2.1
2 | C=CCN1CC(=O)N2[C@@H](Cc3ccc(O)cc3)C(=O)N(Cc3cccc4c(C(=O)N5CCN6CCCC6C5)cn(C)c34)C[C@@H]2N1C(=O)NCc1ccccc1 (stereo partly drawn) [Compound E-43] | 6600 | 15.1
3 | C=CCN1CC(=O)N2[C@@H](Cc3ccc(O)cc3)C(=O)N(Cc3cccc4c(C(=O)Nc5ccc(N6CC(O)C6)nc5)cn(C)c34)C[C@@H]2N1C(=O)NCc1ccccc1 [Compound G-61] | 4870 | 8.5
4 | C=CCN1CC(=O)N2[C@@H](Cc3ccc(O)cc3)C(=O)N(Cc3cccc4c(C(=O)Nc5ccc(OCCCN6CCCCC6)nc5)cn(C)c34)C[C@@H]2N1C(=O)NCc1ccccc1 [Compound G-31] | 7670 | 2.7
5 | C=CCN1CC(=O)N2[C@@H](Cc3ccc(O)cc3)C(=O)N(Cc3cccc4c(C(=O)Nc5ccc(N6CC(N7CCC(OC)CC7)C6)nc5)cn(C)c34)C[C@@H]2N1C(=O)NCc1ccccc1 [Compound G-63] | 2560 | 1.5
6 | C=CCN1CC(=O)N2[C@@H](Cc3ccc(O)cc3)C(=O)N(Cc3cccc4c(C(=O)N5CCN(C(C)C)CC5)cn(C)c34)C[C@@H]2N1C(=O)NCc1ccccc1 [Compound E-7] | 2240 | 11.3
7 | C=CCN1CC(=O)N2C(Cc3ccc(O)cc3)C(=O)N(Cc3cccc4c(C(=O)Nc5ccc(N6CCN(C(C)=O)CC6)nc5)cn(C)c34)CC2N1C(=O)NCc1ccccc1 (stereo not drawn) [Compound G-53] | > 25000 | 1.3
8 | C=CCN1CC(=O)N2C(Cc3ccc(O)cc3)C(=O)N(Cc3cccc4c(C(=O)Nc5ccc(N6CCN(C(C)(C)C)CC6)nc5)cn(C)c34)CC2N1C(=O)NCc1ccccc1 (stereo not drawn) [Compound G-48] | 4190 | 1.3
9 | C=CCN1CC(=O)N2C(CN(Cc3cccc4c(C(=O)Nc5ccc(CCO)cc5)cn(C)c34)C(=O)[C@@H]2Cc2ccc(O)cc2)N1C(=O)NCc1ccccc1 (stereo partly drawn) [Compound G-10] | 7400 | 1.7
10 | C=CCN1CC(=O)N2[C@@H](Cc3ccc(O)cc3)C(=O)N(Cc3cccc4c(C(=O)N(C)CCCO)cn(C)c34)C[C@@H]2N1C(=O)NCc1ccccc1 [Compound F-5] | 3680 | 16
11 | C=CCN1CC(=O)N2[C@@H](Cc3ccc(O)cc3)C(=O)N(Cc3cccc4c(-c5cnc(N(C)C)nc5)cn(C)c34)C[C@@H]2N1C(=O)NCc1ccccc1 [Compound H-7] | 6410 | 1.5
12 | C=CCN1CC(=O)N2C(CN(Cc3cccc4c(C(=O)Nc5ccc(N6CCC7(CCN(CC)C7)C6)nc5)cn(C)c34)C(=O)[C@@H]2Cc2ccc(O)cc2)N1C(=O)NCc1ccccc1 (stereo partly drawn) [Compound G-65] | 3910 | 1.3
13 | C=CCN1CC(=O)N2C(Cc3ccc(O)cc3)C(=O)N(Cc3cccc4c(C(=O)Nc5ccc(N6CCN(CCC)CC6)nc5)cn(C)c34)CC2N1C(=O)NCc1ccccc1 (stereo not drawn) [Compound G-43] | 6940 | 1.3
14 | C=CCN1CC(=O)N2[C@@H](Cc3ccc(O)cc3)C(=O)N(Cc3cccc4c(-c5ccc(C(=O)N6CCSCC6)cc5)cn(C)c34)C[C@@H]2N1C(=O)NCc1ccccc1 [Compound D-5] | 1760 | 2.2
15 | C=CCN1CC(=O)N2[C@@H](Cc3ccc(O)cc3)C(=O)N(Cc3cccc4c(-c5ccc(NC(=O)c6ccc(NC)cc6)cc5)cn(C)c34)C[C@@H]2N1C(=O)NCc1ccccc1 [Compound D-56] | > 25000 | 12.5
16 | C=CCN1CC(=O)N2[C@@H](Cc3ccc(O)cc3)C(=O)N(Cc3cccc4c(C(=O)N5CCC(C(=O)OCC)CC5)cn(C)c34)C[C@@H]2N1C(=O)NCc1ccccc1 [Compound E-53] | 3860 | 1.9
17 | C=CCN1CC(=O)N2C(CN(Cc3cccc4c(-c5ccc(S(C)(=O)=O)cc5)cn(C)c34)C(=O)[C@@H]2Cc2ccc(O)cc2)N1C(=O)NCc1ccccc1 (stereo partly drawn) [Compound H-3] | 10000 | 2.2
18 | C=CCN1CC(=O)N2[C@@H](Cc3ccc(O)cc3)C(=O)N(Cc3cccc4c(-c5ccc(C(=O)NNC(C)(C)C)cc5)cn(C)c34)C[C@@H]2N1C(=O)NCc1ccccc1 [Compound D-34] | 3410 | 1.2
19 | C=CCN1CC(=O)N2[C@@H](Cc3ccc(O)cc3)C(=O)N(Cc3cccc4c(C(=O)N5CCN6CCN(C(=O)OC(C)(C)C)CC6C5)cn(C)c34)C[C@@H]2N1C(=O)NCc1ccccc1 (stereo partly drawn) [Compound E-47] | 2200 | 13.5

Row | SMILES | IC50 [1] [nM] | GI50 [2] [nM]
20 | C=CCN1CC(=O)N2[C@@H](Cc3ccc(O)cc3)C(=O)N(Cc3cccc4c(-c5ccc(C(=O)Nc6ccc(N)cc6)cc5)cn(C)c34)C[C@@H]2N1C(=O)NCc1ccccc1 [Compound D-18] | 2420 | 1.2
21 | C=CCN1CC(=O)N2[C@@H](Cc3ccc(O)cc3)C(=O)N(Cc3cccc4c(-c5ccc(C(=O)Nc6ccccc6)cc5)cn(C)c34)C[C@@H]2N1C(=O)NCc1ccccc1 [Compound D-17] | 7630 | 6.9
22 | C=CCN1CC(=O)N2[C@@H](Cc3ccc(O)cc3)C(=O)N(Cc3cccc4c(-c5ccc(C(=O)N6CCN(C)CC6)nc5)cn(C)c34)C[C@@H]2N1C(=O)NCc1ccccc1 [Compound D-91] | 6510 | 1.3
23 | C=CCN1CC(=O)N2[C@@H](Cc3ccc(O)cc3)C(=O)N(Cc3cccc4c(-c5ccc(NC(=O)c6ccc(CN(CC)CC)cc6)cc5)cn(C)c34)C[C@@H]2N1C(=O)NCc1ccccc1 [Compound D-55] | 2260 | 5.8
24 | C=CCN1CC(=O)N2[C@@H](Cc3ccc(O)cc3)C(=O)N(Cc3cccc4c(C(=O)Nc5ccc(N6CCN(C7CCCC7)CC6)nc5)cn(C)c34)C[C@@H]2N1C(=O)NCc1ccccc1 [Compound G-50] | 17200 | 2.4
25 | C=CCN1CC(=O)N2C(Cc3ccc(O)cc3)C(=O)N(Cc3cccc4c(C(=O)Nc5ccc(NCCN6CCCCC6)nc5)cn(C)c34)CC2N1C(=O)NCc1ccccc1 (stereo not drawn) [Compound G-27] | 2530 | 2
26 | C=CCN1CC(=O)N2[C@@H](Cc3ccc(O)cc3)C(=O)N(Cc3cccc4c(C(=O)Nc5ccc(N6CC(N7CCN(C)CC7)C6)nc5)cn(C)c34)C[C@@H]2N1C(=O)NCc1ccccc1 [Compound G-62] | 4100 | 1.4
27 | C=CCN1CC(=O)N2[C@@H](Cc3ccc(O)cc3)C(=O)N(Cc3cccc4c(-c5ccc(NC(=O)NC6CCN(C)CC6)nc5)cn(C)c34)C[C@@H]2N1C(=O)NCc1ccccc1 [Compound D-98] | 2920 | 23
28 | C=CCN1CC(=O)N2[C@@H](Cc3ccc(O)cc3)C(=O)N(Cc3cccc4c(-c5ccc(NC(=O)N6CCOCC6)nc5)cn(C)c34)C[C@@H]2N1C(=O)NCc1ccccc1 [Compound D-88] | 10200 | 1.2
29 | C=CCN1CC(=O)N2[C@@H](Cc3ccc(O)cc3)C(=O)N(Cc3cccc4c(-c5ccc(NC(=O)NCCc6ccccc6)cc5)cn(C)c34)C[C@@H]2N1C(=O)NCc1ccccc1 [Compound D-75] | 10500 | 17
30 | C=CCN1CC(=O)N2[C@@H](Cc3ccc(O)cc3)C(=O)N(Cc3cccc4c(-c5ccc(NC(=O)N6CCN(S(C)(=O)=O)CC6)nc5)cn(C)c34)C[C@@H]2N1C(=O)NCc1ccccc1 [Compound D-97] | 6400 | 2.2
31 | C=CCN1CC(=O)N2C(CN(Cc3cccc4c(C(=O)Nc5ccc(N6CCNCC6)nc5)cn(C)c34)C(=O)[C@@H]2Cc2ccc(O)cc2)N1C(=O)NCc1ccccc1 (stereo partly drawn) [Compound G-39] | 2730 | 11.3
32 | C=CCN1CC(=O)N2[C@@H](Cc3ccc(O)cc3)C(=O)N(Cc3cccc4c(C(=O)N5CCN(CC6CCCC6)CC5)cn(C)c34)C[C@@H]2N1C(=O)NCc1ccccc1 [Compound E-21] | > 25000 | –
33 | C=CCN1CC(=O)N2[C@@H](Cc3ccc(O)cc3)C(=O)N(Cc3cccc4c(-c5ccc(NC(=O)CCCNCCC(C)=O)cc5)cn(C)c34)C[C@@H]2N1C(=O)NCc1ccccc1 [Compound D-72] | 2780 | –
34 | C=CCN1CC(=O)N2[C@@H](Cc3ccc(O)cc3)C(=O)N(Cc3cccc4c(C(=O)NCCC(=O)OCC)cn(C)c34)C[C@@H]2N1C(=O)NCc1ccccc1 [Compound F-22] | 3580 | –
35 | C=CCN1CC(=O)N2[C@@H](Cc3ccc(O)cc3)C(=O)N(Cc3cccc4c(C(=O)NNc5ccccc5)cn(C)c34)C[C@@H]2N1C(=O)NCc1ccccc1 [Compound F-60] | 6800 | –
36 | C=CCN1CC(=O)N2[C@@H](Cc3ccc(O)cc3)C(=O)N(Cc3cccc4c(C(=O)NC5CCN(C(=O)CCO)CC5)cn(C)c34)C[C@@H]2N1C(=O)NCc1ccccc1 [Compound F-65] | 6870 | –
37 | C=CCN1CC(=O)N2[C@@H](Cc3ccc(O)cc3)C(=O)N(Cc3cccc4c(C(=O)N5CCN(CCO)CC5)cn(C)c34)C[C@@H]2N1C(=O)NCc1ccccc1 [Compound E-9] | 6820 | –
38 | C=CCN1CC(=O)N2[C@@H](Cc3ccc(O)cc3)C(=O)N(Cc3cccc4c(C(=O)NC5CCN(C(C)=O)CC5)cn(C)c34)C[C@@H]2N1C(=O)NCc1ccccc1 [Compound F-64] | 5120 | –
